Assay results taken from PubChem BioAssay (NCI).
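Method: 48-hour compound exposure of cells in 96-well plates, five concentrations, linear interpolation of endpoints. TGI denotes the concentration required for complete inhibition of growth.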 *1 amine or outer side, *2 acyl side, *3 side chain or, on linkers, in order; H or OH if unused. Where a SMILES comes first, the peptide text is derived from it. Bridges are numbered along the chain shown (N, C = ends). Roman numbers before positions name the chains, in order. [ ]: non-standard residue; d: D form. The star is where a group is joined. Actinocin(9to1) = Cc1c2oc3c(C)ccc(C(=O)[*:1])c3nc-2c(C(=O)[*:2])c(N)c1=O; NMeV = CN[CH](C(=O)O)C(C)C; Cbz = O=C(OCc1ccccc1)*; OBn = c1ccc(CO*)cc1; Sar = CNCC(=O)O

What was measured:
Test in all cases: NCI tumour cell line growth inhibition, 48 h
SR leukemia = tested on: SR leukemia
MALME-3M melanoma = tested on: MALME-3M melanoma
HT29 colon = tested on: HT29 colon
T-47D breast = tested on: T-47D breast
HCT-15 colon = tested on: HCT-15 colon
A549 NSCLC = tested on: A549 NSCLC
SF-539 CNS = tested on: SF-539 CNS
HCT-116 colon = tested on: HCT-116 colon
BT-549 breast = tested on: BT-549 breast
SK-MEL-28 melanoma = tested on: SK-MEL-28 melanoma

SMILES | TGI (SR leukemia) | TGI (MALME-3M melanoma) | TGI (HT29 colon) | TGI (T-47D breast) | TGI (HCT-15 colon) | TGI (A549 NSCLC) | TGI (SF-539 CNS) | TGI (HCT-116 colon) | TGI (BT-549 breast) | TGI (SK-MEL-28 melanoma)
O=C1COc2ccc([N+](=O)[O-])cc2C(=O)C1 | > 10 µM | > 10 µM | > 10 µM | > 10 µM | > 10 µM | > 10 µM | > 10 µM | > 10 µM | > 10 µM | > 10 µM
CSc1c(C#N)c(=O)[nH]c2n[nH]c(C)c12 | > 100 µM | > 100 µM | > 100 µM | > 100 µM | > 100 µM | > 100 µM | > 100 µM | > 100 µM | > 100 µM | > 100 µM
COC(=O)C(Cc1ccc(O)cc1)NC(=O)C(CC(=O)OCc1ccccc1)NC(=O)OCc1ccccc1 (stereo unspecified) (Cbz-Asp(OBn)-Tyr-OMe; configuration not given here) | 66.3 µM | > 100 µM | 32.2 µM | 40 µM | 33.7 µM | 37 µM | – | 35.1 µM | 37.4 µM | 31.3 µM
NC(=O)c1ccc2c(c1)S(=O)(=O)c1ccccc1C2=O | > 100 µM | > 100 µM | > 100 µM | > 100 µM | > 100 µM | > 100 µM | > 100 µM | > 100 µM | > 100 µM | > 100 µM
Cc1sc(/N=C/c2c[nH]c3ccccc23)c(C#N)c1C | > 100 µM | > 100 µM | > 100 µM | > 100 µM | > 100 µM | > 100 µM | > 100 µM | > 100 µM | > 100 µM | > 100 µM
O=[N+]([O-])c1ccc(N=Nc2c(O)c(S(=O)(=O)O)cc3cc(S(=O)(=O)O)ccc23)cc1 | > 100 µM | > 100 µM | > 100 µM | > 100 µM | > 100 µM | > 100 µM | > 100 µM | > 100 µM | > 100 µM | > 100 µM
COc1ccc2c(c1)N=C1CSC(c3ccccc3Cl)N1C2 (stereo unspecified) | 16 µM | 73.9 µM | 19.6 µM | > 100 µM | 87.8 µM | 31.9 µM | 22.6 µM | 18.8 µM | > 100 µM | 40.8 µM
COC(=O)n1c(=O)n(-c2ccccc2)c(=O)n1C(=O)OC | > 100 µM | > 100 µM | > 100 µM | > 100 µM | > 100 µM | > 100 µM | > 100 µM | > 100 µM | > 100 µM | > 100 µM
CCCCCCCCCCCCCCCCCCNc1ccn(C2OC(COP(=O)(O)OCC3OC(n4cc(C)c(=O)[nH]c4=O)CC3N=[N+]=[N-])C(O)C2O)c(=O)n1 (stereo unspecified) | 80 µM | 32.1 µM | 35.1 µM | > 100 µM | 36.1 µM | > 100 µM | 33.8 µM | > 100 µM | 49.2 µM | 36.8 µM
CN(C)CCNC(=O)c1cccc2nc3c(nc12)-c1ccccc1C3=O | > 21.5 µM | 24.2 µM | 22.8 µM | 37.4 µM | 41.4 µM | 37.7 µM | 27 µM | 88.3 µM | 29.7 µM | 37.3 µM
Cc1nc2ccc(S(=O)(=O)O)cc2c(=O)n1-c1ccc(C(=O)NN2C(=O)C(Cl)C2c2ccccc2O)cc1 (stereo unspecified) | > 100 µM | > 100 µM | > 100 µM | > 100 µM | > 100 µM | > 100 µM | > 100 µM | > 100 µM | > 100 µM | > 100 µM
O=c1c(C=Nc2ccc([N+](=O)[O-])cc2)c(O)n(-c2ccccc2)c(=O)n1-c1ccccc1 | > 100 µM | > 100 µM | > 100 µM | > 100 µM | > 100 µM | > 100 µM | – | > 100 µM | > 100 µM | –
C=CCNC(=O)NC1=CSC2=NC(=O)C3(NN12)c1ccccc1-c1ccccc13 | > 10 µM | > 10 µM | > 10 µM | > 10 µM | > 10 µM | > 10 µM | > 10 µM | > 10 µM | > 10 µM | > 10 µM
O=C1C=C(Br)c2c(Br)sc(Br)c21 | > 100 µM | 35.2 µM | 44.5 µM | 31.4 µM | 20.5 µM | > 77.3 µM | 18.2 µM | 30.4 µM | 17 µM | > 56.2 µM
CC(C)(C)C1(COC(=O)c2ccc(N)cc2)COC1 | > 100 µM | > 100 µM | > 100 µM | > 100 µM | > 100 µM | > 100 µM | > 100 µM | > 100 µM | > 100 µM | > 100 µM
CC[C@H](C)[C@H]1NC(=O)[C@@H](NC(=O)[C@@H](CC(C)C)N(C)CC2CCCN2C(=O)C(C)=O)[C@@H](C)OC(=O)[C@H](Cc2ccc(OC)cc2)N(C)C(=O)C2CCCN2C(=O)[C@H](CC(C)C)NC(=O)[C@@H](C)C(=O)[C@H](C(C)C)OC(=O)C[C@@H]1O (stereo partly specified) | 0.00471 µM | 0.0474 µM | 0.0065 µM | 0.012 µM | 0.73 µM | 0.0335 µM | – | 0.0102 µM | 0.0135 µM | 0.0303 µM

SMILES | TGI (SR leukemia) | TGI (MALME-3M melanoma) | TGI (HT29 colon) | TGI (T-47D breast) | TGI (HCT-15 colon) | TGI (A549 NSCLC) | TGI (SF-539 CNS) | TGI (HCT-116 colon) | TGI (BT-549 breast) | TGI (SK-MEL-28 melanoma)
CCc1ccc2[nH]c(O)c(-c3[nH]c4ccccc4c3N=O)c2c1 | > 100 µM | 21.6 µM | 25.5 µM | 32.8 µM | 15.1 µM | 37 µM | – | 10 µM | 20.6 µM | 26.7 µM
C=CCSC1=N/C(=C\c2ccccc2)C(=O)N1CC=C | > 61.6 µM | > 100 µM | > 66.8 µM | 98.6 µM | > 100 µM | > 100 µM | > 100 µM | > 100 µM | > 100 µM | > 100 µM
CN(NC(=O)CCCl)C1=NCCCCN1 | > 100 µM | > 100 µM | > 100 µM | > 100 µM | > 100 µM | > 100 µM | > 100 µM | > 100 µM | > 100 µM | > 100 µM
Cc1c2oc3c(C)ccc(C(=O)NC4C(=O)NC(C(C)O)C(=O)N5CCCC5C(=O)N(C)CC(=O)N(C)C(C(C)C)C(=O)OC4C)c3nc-2c(C(=O)NC2C(=O)NC(C(C)O)C(=O)N3CCCC3C(=O)N(C)CC(=O)N(C)C(C(C)C)C(=O)OC2C)c(N)c1=O (stereo unspecified) (I: TTP[Sar][NMeV] / II: TTP[Sar][NMeV]; ester I:1-I:C, II:1-II:C; linker I:N-II:N via Actinocin(9to1); configuration not given here) | 0.047 µM | – | 4.19 µM | > 100 µM | > 100 µM | 32.1 µM | 1.44 µM | > 100 µM | 1.03 µM | 2.75 µM
COC(OC)C1OC(CO)C(n2ccc(N)nc2=O)C1O (stereo unspecified) | > 100 µM | > 100 µM | > 100 µM | > 100 µM | > 100 µM | > 100 µM | > 100 µM | > 100 µM | > 100 µM | > 100 µM
O=C1c2c(nc3ccccc3c2-c2ccccc2)CN1Nc1ccccn1 | > 100 µM | > 100 µM | > 100 µM | > 100 µM | > 100 µM | > 100 µM | 99.5 µM | > 100 µM | > 100 µM | > 100 µM
C(=C\c1ccccc1)/C=N/c1nc2cc3sc(/N=C/C=C/c4ccccc4)nc3cc2s1 | 32.4 µM | > 100 µM | > 100 µM | > 100 µM | > 100 µM | > 100 µM | > 100 µM | > 100 µM | > 100 µM | > 100 µM
COc1ccc(N=N/C(=N/NC(=O)c2ccccc2)c2ccc(N(CCC#N)CCC#N)cc2C)cc1 | > 100 µM | > 100 µM | 55 µM | > 100 µM | > 100 µM | > 100 µM | 70 µM | > 100 µM | > 100 µM | –
N#Cc1c(N2CCCC2)ncn(Cc2ccccc2)c1=O | > 100 µM | > 100 µM | > 100 µM | > 100 µM | > 100 µM | > 100 µM | > 100 µM | > 100 µM | > 100 µM | > 100 µM
NC(=S)Nc1[nH]c(=S)nc2c1SC1=N/C(=C\c3ccco3)C(=O)N12 | > 70.7 µM | > 83.3 µM | > 100 µM | > 100 µM | > 100 µM | > 100 µM | > 100 µM | > 100 µM | > 100 µM | > 100 µM
CCOC(=O)/C=C(\C(=O)OCC)n1ccc(N)nc1=O | > 100 µM | > 100 µM | > 100 µM | > 100 µM | > 100 µM | > 100 µM | > 100 µM | > 100 µM | > 100 µM | –
CC(C)c1ccc(/C=C2\CSCC3=C2NC(=S)NC3c2ccc(C(C)C)cc2)cc1 (stereo unspecified) | > 100 µM | > 100 µM | > 100 µM | > 100 µM | > 100 µM | > 100 µM | > 100 µM | > 100 µM | > 100 µM | > 100 µM
CNC(=O)c1cc(NC(=O)N(CCC#N)CCN(C(=O)N[C@@H](Cc2ccccc2)C(=O)N[C@@H](CC(C)C)C(=O)NC)c2ccccc2)ccc1OC | 68.9 µM | 38.5 µM | > 100 µM | > 85.9 µM | > 100 µM | > 100 µM | > 66.3 µM | > 100 µM | > 100 µM | > 61.9 µM
O=C1/C(=C/c2ccccc2[N+](=O)[O-])N=C(c2ccccc2)N1C1Nc2cc3c(cc2S1)NC(N1C(=O)/C(=C/c2ccccc2[N+](=O)[O-])N=C1c1ccccc1)S3 (stereo unspecified) | 90.3 µM | – | > 100 µM | > 100 µM | > 100 µM | > 100 µM | > 100 µM | > 100 µM | > 100 µM | > 100 µM
CCOC(=O)/C=C(/C(=O)OCC)n1cc(C)c(=O)n(Cc2cn(COCCOC(C)=O)nn2)c1=O | > 94.9 µM | 23.7 µM | 30.7 µM | > 64.3 µM | > 61.9 µM | > 100 µM | 38.1 µM | > 53.3 µM | 37.9 µM | 57.1 µM
